Source: patent US20260183306A1, “Methods for Treating Respiratory Diseases Characterized by Mucus Hypersecretion” (The Board of Trustees of the Leland Stanford Junior …, priority 2022, published 2026)
Read-outs that look alike come from different tables or passages of the source.

Columns and labels:
[1] = tested on: healthy and CF primary human airway epithelial cultures; assay: SEM of cilia structure in healthy and CF primary human airway epithelial cultures; type: cell-based
Procedure: Wholemount immunofluorescence and scanning electron microscopy of HNEC cultures. For wholemount immunofluorescence, HBECs were fixed in −20° C. methanol or 4% paraformaldehyde for 10 min as previously described (43). Transwell filters were cut out of the plastic supports and placed in a humidity chamber for staining. Samples were blocked in 10% normal horse serum and 0.1% Triton X-100 in PBS and incubated with primary antibodies for 1-2 h, then with Alexa dye conjugated secondary antibodies (Thermo Fisher) for 30 min at room temperature. Filters were mounted in Mowiol mounting medium containing 2% N-propyl gallate (Sigma). Samples were imaged with a Leica SP8 confocal microscope. For antibodies and fixation conditions, see Table 2. For SEM, Transwell filters were fixed in 2% glutaraldehyde, 4% paraformaldehyde in 0.1 M NaCacodylate buffer, pH 7.4 at 4° C. overnight. Samples were osmicated, dehydrated, dried with a Tousimis Autosamdri-815 critical point dryer. Samples were mounted luminal side up, sputter coated with 100 Å layer of Au/Pd. Images were acquired with a Hitachi S-3400N VP-SEM microscope operated at 10−15 kV, with a working distance of 7−10 mm and using secondary electron detection.

[2] = tested on: primary human epithelial cells (HNECs); assay: Ciliary beat frequency and cilium length in HNEC cultures; type: cell-based; settings: differentiated in the presence of GSI
Procedure: Ciliary length and ciliary beat frequency (CBF) measurement in HNEC cultures. ALI+21d HNECs were washed with warm PBS to remove mucus, then the Transwell filter was gently cut out of the plastic support. The filter was carefully folded along the center such that the folded edge exposed the mucosal surface for the evaluation of beating cilia. The folded filter was placed on a microscope slide inside a 100 μm mask, 100 μl of warm medium was added to maintain humidity, and a cover slip was immediately placed over the filter to seal the preparation. The slide was then placed on a heated stage at 37° C. and imaged with a digital video microscope fitted with a Keyence VW-9000 series high speed camera (Keyence). Images were captured at 2,000× and 500 fps on multiple areas per filter. Average CBF (Hz) was calculated from kymographs generated from the high speed videos. Ciliary length was measured from still images of the recording where the cilia were orthogonal to the apical surface.

[3] = tested on: primary nasal epithelial cells from two CF donors (F508del homozygotes); assay: Ciliary beat frequency (CBF) in CF nasal epithelial cultures, MK-0752 and Elexacaftor; type: cell-based, human
Procedure: Primary nasal epithelial cells from two CF donors (F508del homozygotes) were grown in filter inserts as in previous experiments to full differentiation. We evaluated whether lower doses of both MK-0752 and Elexacftor than doses used in the previous experiments could elicit a positive response in CBF as evidence for synergy between the two drugs. During differentiation, cultures received treatment with vehicle control or the GSI MK-0752 at 125 nM, or triple combination modulator combination with Elexacaftor at 100 nM, or both treatments combined. Once cells reached maturity, the apical surface was washed gently with PBS and then placed on an inverted microscope on a heated stage at 37° C. High speed video recording at 200× of the ciliated surface was performed to estimate the CBF in several regions. Average CBF in Hz for each condition are represented by the bars in FIG. 30.

[4] = upon oral administration; cited from earlier work
Alzheimer's mouse models = settings: 30 mg/kg daily for five months or 100 mg/kg daily for 12 days; cited from earlier work
[5] = tested on: primary nasal epithelial cells from two CF donors (F508del homozygotes); assay: Mucus transport by latex bead movement on CF HNEC cultures; type: cell-based, human
Procedure: Primary nasal epithelial cells from two CF donors (F508del homozygotes) were grown in duplicate as in previous experiments to full differentiation under treatment with vehicle control, triple combination CFTR modulator (Elexcaftor/Tezacaftor/Ivacaftor), the GSI semagacestat (LY-45139) or both treatments combined. Once mature, a 20 μl suspension of 2 μm latex beads was added to the apical surface and the insert cut for placement under a microscope fitted with a high-speed video recorder. Images were then acquired at 1000 fps to track bead movement as a reflection of mucus transport by the ciliated surface and distance travelled by individual beads estimated.

[6] = Body weight and tolerability in GSI treated mice (surrogate of GI toxicity); type: in vivo
Procedure: In the second experiment, vehicle and semagacestat were administered once daily for 5 consecutive days per week for three weeks, with a semagacestat dose of 1 mg/kg. […] As a surrogate measure of GI toxicity, we monitored body weight throughout the experiment. Body weight was measured on Days 1, 9, 24 and 30, and mice were sacrificed on day 31.
Mouse husbandry and GSI treatment in mice. […] 10-40 week age-matched male and female Foxj1/EGFP mice were treated with LY450139 or vehicle control by intraperitoneal (IF) administration. In the first experiment, 0.1 mg/kg, or 1 mg/kg LY450139, 10 mg/kg DAPT or saline vehicle was administered twice daily for three consecutive days, then the mice were sacrificed on day 7. In the second experiment, 1 mg/kg LY450139 or saline vehicle was administered once daily for five consecutive days per week for three weeks, then the mice were sacrificed on day 30. Body weight was monitored as a surrogate measure of GI toxicity.

[7] = cited from earlier work

In the case of C[C@H](NC(=O)Cc1cc(F)cc(F)c1)C(=O)NC(C(=O)OC(C)(C)C)c1ccccc1 (stereo partly drawn) [DAPT], the “structure of multiciliated cells / cilia” value [1] is reported as “indistinguishable from those in untreated healthy cultures”, the “ciliary beat frequency versus untreated controls” value ([2]; t-test p<0.0001) is reported as “modest, but significant increase” and the “cilium length versus untreated controls” value ([2]; t-test p=0.3111) is reported as “no difference”.
In the case of O=C(O)CC[C@H]1CC[C@@](c2cc(F)ccc2F)(S(=O)(=O)c2ccc(Cl)cc2)CC1 [MK-0752], the “increase in CBF expected by the simple addition of the independent effects” value ([3]; MK-0752 125 nM plus triple combination with Elexacaftor 100 nM) is reported as 28%, the “increase in CBF by the combined treatments versus either drug alone” value ([3]; MK-0752 125 nM plus triple combination with Elexacaftor 100 nM, p<0.005) is reported as “larger than with either drug alone” and the “increase in CBF by the combined treatments” value ([3]; MK-0752 125 nM plus triple combination with Elexacaftor 100 nM, p=0.049 vs expected) is reported as 36%. The “ciliary beat frequency (CBF) versus control” value ([3]; MK-0752 at 125 nM during differentiation, p<0.001 vs control) was “significant effect in increasing the CBF”.
In the case of CC(C)[C@H](O)C(=O)N[C@@H](C)C(=O)N[C@@H]1C(=O)N(C)CCc2ccccc21 [semagacestat, (2S)-2-hydroxy-3-methyl-N-[(1 S)-1-methyl-2-oxo-2-[[(1 S)-2,3,4,5-tetrahydro-3-methyl-2-oxo-1H-3-benzazepin-1-yl]amino]ethyl]-butamide], the half-life [4] is listed as “approximately 2.5 hours”, the “efficacy in Alzheimer's mouse models” value (Alzheimer's mouse models) is listed as “demonstrated efficacy” and the “bead movement (mucus transport) of the combination” value ([5]; combination of ETI and semagacestat, p<0.05 against either treatment alone) is listed as “Remarkable increases in transport”. The “bead movement (mucus transport) versus control” value ([5]; single treatment, p<0.01 vs control) was “Significant increases in movement”, the “body weight versus vehicle controls” value ([6]; 1 mg/kg IP once daily 5 days per week for three weeks, days 9, 24 and 30) was “no significant difference” and the “mortality, ill effects, adverse events, tolerability” value ([6]; 1 mg/kg IP once daily 5 days per week for three weeks, listed as LY450139) was “well tolerated”. The apparent toxicity ([6]; 1 mg/kg administered for three days) was “without any apparent toxicity”, the adverse events ([7]; Phase I, 5 mg, 20 mg or 40 mg daily for 14 days) was “adverse events similar to placebo” and the “subjects reporting adverse events that may have been drug related” value ([7]; Phase I, 50 mg daily dose) was 2 of 7. For the same compound, the cognitive status ([7]; Phase III trial in Alzheimer's Disease, 100 mg and 140 mg daily) was “did not improve cognitive status”, the cognitive ability ([7]; Phase III trial in Alzheimer's Disease, patients on the highest dose) was “significant worsening of cognitive ability” and the adverse events ([7]; Phase III trial in Alzheimer's Disease) was “more adverse events, including skin cancers and infections”. The “tolerability of lower doses” value ([7]; human trials, 50 mg for 2 weeks or 40 mg for 6 weeks daily) was “well-tolerated” and the “tolerability of higher doses” value ([7]; human trials, 100 mg and 140 mg daily for 14 weeks) was “not well tolerated chiefly due to GI related adverse events”.
